In paper PMC8151276, “An Integrated Approach toward NanoBRET Tracers for Analysis of GPCR Ligand Engagement” (Molecules, 2021):
Values belong to the compound of their own block, whether it stands above or below them.

Legend:
OPRD1 = target: T1, OPRD1 (Homo sapiens, UniProt P41143); test: NanoBRET screen HiBiT-OPRD1 in HEK293; assay type: binding; conditions: OPRD1
T1 construct: purchased Promega (in-house HiBiT-GPCR construct library, NanoBRET)
Experimental: (§1) Each tracer candidate was screened across the entire library of HiBiT-GPCR constructs using NanoBRET as the detection modality. As depicted in Figure 4A, the specificity of interactions was evaluated through decrease in BRET due to competitive displacement of a bound tracer by excess parental compound. Each tracer was analyzed for binding to each HiBiT-GPCR fusion in the absence and in the presence of competing parental compound. Briefly, HEK293 cells were transfected with HiBiT-GPCR constructs diluted into promoterless DNA to reduce expression and maximize translocation to the cell surface. Each tracer candidate was then screened at concentrations of 1 μM and 0.1 μM across cells expressing these fusions. Cells were treated for 1.5 h with tracer either alone or in the presence of 20 μM competing parental compound (i.e., control). BRET was measured upon addition of purified LgBiT and subsequent complementation with HiBiT genetically fused to a GPCR. The specificity of interactions was assessed through a decrease in BRET signal due to competitive displacement of the bound tracer. To further gauge the robustness of these interactions, the fold response over the control (i.e., BRETtracer/BRETcontrol) was calculated. We chose a 1.5-fold response, which translates to ≥7-fold signal over noise as the minimal threshold required to score an interaction as positive.
(§2) HiBiT-GPCR DNA constructs were diluted in 10 mM Tris pH 8 to a final concentration of 0.01 μg/μL, arrayed in 96-well plates and stored at −20 °C. For transfection, HEK293 cells were suspended in Opti-MEM (without phenol red) supplemented with 2% fetal bovine serum (Seradigm) and 100 units/mL penicillin–streptomycin (Gibco) at a final concentration of 220,000 cells/mL and dispensed into white 96-well plates at 90 μL/well. Subsequent transfections and screens were carried using an Agilent Bravo Automated Liquid Handling Platform. First, the 96-well HiBiT DNA arrays were diluted 25-fold in Opti-MEM (without serum or phenol red) to a final concentration of 0.0004 μg/μL and 20 μL of the diluted DNAs were transferred into new 96-well plates. Next, promoterless carrier DNA (1 μg/μL) was diluted 25-fold (0.04 μg/μL) and then dispensed into the diluted arrays at 20 μL/well. Following brief mixing, Viafect transfection reagent (Promega) diluted 16-fold into Opti-MEM was dispensed into the plates at 40 μL/well. After mixing by pipetting, plates were incubated for 10 min on the pipetting station deck. The DNA-transfection reagent complexes were then added to plates containing cells. To facilitate the screen, 10 μL of DNA-transfection reagent complexes were added in duplicates to the top 4 and bottom 4 rows, resulting in two identical 48-well arrays per plate. Plates with transfected cells were incubated for 18–20 h at 37 °C/5% CO2. A screen of each tracer across the entire library using two different concentrations requires duplicate plates of transfected cells. Depending on the number of tracers being screened, transfections can be scaled up using the same ratios. The next day, for each tracer, four 20× screening solutions in tracer dilution buffer (Promega) were prepared: two duplicates at final concentration of 20 μM and two duplicates at a final concentration of 2 μM. […] The four resulting solutions were diluted 4-fold in Opti-MEM without serum or phenol red to generate 5× solutions (5 µM and 0.5 µM tracer +/− 100 μM competing compound). To screen the library, a BioTek MultiFlo FX liquid dispenser was used to dispense 22.5 µL of tracer solution to the top 4 rows and 22.5 µL tracer + competing compound solution to the 4 bottom rows. Plates were briefly mixed on an orbital shaker and incubated for 1.5 h at room temperature. […] Plates were briefly mixed on an orbital shaker and incubated for 15 min to allow complementation.

OPRM1 = target: T2, OPRM1 (Homo sapiens, UniProt P35372); test: NanoBRET screen HiBiT-OPRM1 in HEK293; assay type: binding; conditions: OPRM1
T2 construct: purchased Promega (in-house HiBiT-GPCR construct library, NanoBRET)
Experimental: as §1, §2

OPRK1 = target: T3, OPRK1 (Homo sapiens, UniProt P41145); test: NanoBRET screen HiBiT-OPRK1 in HEK293; assay type: binding; conditions: OPRK1
T3 construct: purchased Promega (in-house HiBiT-GPCR construct library, NanoBRET)
Experimental: as §1, with “positive. […]. Below we highlight the screening results obtained for our exemplary fluorescent tracers based on Clozapine, Amitriptyline and AZD1283.” for “positive.”
HiBiT-GPCR DNA constructs were diluted in 10 mM Tris pH 8 to a final concentration of 0.01 μg/μL, arrayed in 96-well plates and stored at −20 °C. For transfection, HEK293 cells were suspended in Opti-MEM (without phenol red) supplemented with 2% fetal bovine serum (Seradigm) and 100 units/mL penicillin–streptomycin (Gibco) at a final concentration of 220,000 cells/mL and dispensed into white 96-well plates at 90 μL/well. Subsequent transfections and screens were carried using an Agilent Bravo Automated Liquid Handling Platform. First, the 96-well HiBiT DNA arrays were diluted 25-fold in Opti-MEM (without serum or phenol red) to a final concentration of 0.0004 μg/μL and 20 μL of the diluted DNAs were transferred into new 96-well plates. Next, promoterless carrier DNA (1 μg/μL) was diluted 25-fold (0.04 μg/μL) and then dispensed into the diluted arrays at 20 μL/well. Following brief mixing, Viafect transfection reagent (Promega) diluted 16-fold into Opti-MEM was dispensed into the plates at 40 μL/well. After mixing by pipetting, plates were incubated for 10 min on the pipetting station deck. The DNA-transfection reagent complexes were then added to plates containing cells. To facilitate the screen, 10 μL of DNA-transfection reagent complexes were added in duplicates to the top 4 and bottom 4 rows, resulting in two identical 48-well arrays per plate. Plates with transfected cells were incubated for 18–20 h at 37 °C/5% CO2. A screen of each tracer across the entire library using two different concentrations requires duplicate plates of transfected cells. Depending on the number of tracers being screened, transfections can be scaled up using the same ratios. The next day, for each tracer, four 20× screening solutions in tracer dilution buffer (Promega) were prepared: two duplicates at final concentration of 20 μM and two duplicates at a final concentration of 2 μM. A competing unmodified compound was added to one of each duplicate at a final concentration of 400 μM. The four resulting solutions were diluted 4-fold in Opti-MEM without serum or phenol red to generate 5× solutions (5 µM and 0.5 µM tracer +/− 100 μM competing compound). To screen the library, a BioTek MultiFlo FX liquid dispenser was used to dispense 22.5 µL of tracer solution to the top 4 rows and 22.5 µL tracer + competing compound solution to the 4 bottom rows. Plates were briefly mixed on an orbital shaker and incubated for 1.5 h at room temperature. […]

ADRB1 = target: T4, ADRB1 (Homo sapiens, UniProt P08588); test: NanoBRET screen HiBiT-ADRB1 in HEK293; assay type: binding; conditions: ADRB1
T4 construct: purchased Promega (in-house HiBiT-GPCR construct library, NanoBRET)

ADRB3 = target: T5, ADRB3 (Homo sapiens, UniProt P13945); test: NanoBRET screen HiBiT-ADRB3 in HEK293; assay type: binding; conditions: ADRB3
T5 construct: purchased Promega (in-house HiBiT-GPCR construct library, NanoBRET)
Experimental: as §1, §2

Dopamine receptors = test: Competitive displacement of Clozapine-a-2-NB590 by unmodified scaffold (NanoBRET); assay type: binding, human; conditions: tracer Clozapine-a-2-NB590
Source text: (§3) Finally, we opted to compare the machine learning predictions for the 17 scaffolds to the empirical NanoBRET evaluations across 36 GPCR families investigated by both strategies (Figure 7). The highest correlation between model-predicted and NanoBRET-confirmed interactions was found using minimal thresholds of ≥4% classification probability and ≥1.5-fold response, respectively (Figure S11). These thresholds provided the best balance between model accuracy and a low percentage of false predictions. Accordingly, machine learning predictions for all unmodified scaffolds were compiled (Figure S6) and those above the minimum 4% probability threshold were classified as positive interactions (Figure 7A). At the same time, empirical NanoBRET results for each scaffold were consolidated to include results for all relevant fluorescent tracer candidates screened at either 1 μM or 0.1 μM tracer concentrations. […] One caveat comparing model predictions to empirical NanoBRET evaluations is their use of unmodified versus fluorescently modified scaffolds, respectively. Therefore, model predictions not verified by BRET could in part be the result of fluorophore interference with binding interactions. […]

[1] = test system: 5-Hydroxytryptamine receptors; test: as above; assay type: binding, human; conditions: tracer Clozapine-a-2-NB590
Source text: as §3

[2] = test system: alpha-Adrenergic receptors; test: as above; assay type: binding, human; conditions: for Interaction verified via competitive displacement of tracer: tracer Clozapine-a-2-NB590, alpha-Adrenergic receptors; for NanoBRET Fold Response, other tracers/XAC (unmodified): displaced by unmodified XAC
Experimental: Finally, we opted to compare the machine learning predictions for the 17 scaffolds to the empirical NanoBRET evaluations across 36 GPCR families investigated by both strategies (Figure 7). […] At the same time, empirical NanoBRET results for each scaffold were consolidated to include results for all relevant fluorescent tracer candidates screened at either 1 μM or 0.1 μM tracer concentrations. […] These additional verifications were incorporated to the comparative analysis and are also included in the compiled screening results (Supplementary Materials Excel spreadsheet).

ADRB2 = target: T6, ADRB2 (Homo sapiens, UniProt P07550); test: NanoBRET screen HiBiT-ADRB2 in HEK293; assay type: binding; conditions: ADRB2, other tracers/Quetiapine (unmodified)
T6 construct: purchased Promega (in-house HiBiT-GPCR construct library, NanoBRET)
Experimental: as §1, §2

[3] = other tracers/Tolterodine (unmodified), 1μM
[4] = other tracers/Tolterodine (unmodified), 0.1μM
[5] = other tracers/Quetiapine (unmodified), 0.1μM
[6] = other tracers/Quetiapine (unmodified), 1μM

T3 sequence (P41145 whole entry): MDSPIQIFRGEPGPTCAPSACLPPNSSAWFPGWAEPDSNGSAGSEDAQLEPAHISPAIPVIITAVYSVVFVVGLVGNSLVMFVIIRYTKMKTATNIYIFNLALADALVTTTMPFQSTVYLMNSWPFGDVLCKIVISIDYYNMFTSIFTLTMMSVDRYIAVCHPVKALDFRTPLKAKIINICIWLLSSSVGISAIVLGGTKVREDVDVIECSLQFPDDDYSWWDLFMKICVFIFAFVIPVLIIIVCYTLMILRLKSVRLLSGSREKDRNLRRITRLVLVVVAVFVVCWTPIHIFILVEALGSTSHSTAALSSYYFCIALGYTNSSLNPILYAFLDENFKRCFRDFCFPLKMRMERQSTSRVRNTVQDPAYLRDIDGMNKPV
T4 sequence (P08588 whole entry): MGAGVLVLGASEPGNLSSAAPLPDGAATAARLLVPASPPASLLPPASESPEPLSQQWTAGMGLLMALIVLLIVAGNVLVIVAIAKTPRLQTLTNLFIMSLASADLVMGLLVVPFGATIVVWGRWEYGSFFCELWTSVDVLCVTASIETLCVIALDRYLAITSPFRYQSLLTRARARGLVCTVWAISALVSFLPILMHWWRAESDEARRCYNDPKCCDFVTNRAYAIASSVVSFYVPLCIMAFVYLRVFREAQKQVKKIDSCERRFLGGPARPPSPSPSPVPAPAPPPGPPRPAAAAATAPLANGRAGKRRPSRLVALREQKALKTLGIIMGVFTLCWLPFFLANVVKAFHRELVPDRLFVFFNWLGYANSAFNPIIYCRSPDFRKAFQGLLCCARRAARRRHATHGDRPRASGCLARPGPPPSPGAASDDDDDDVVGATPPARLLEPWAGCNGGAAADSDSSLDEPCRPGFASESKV
T1 sequence (P41143 whole entry): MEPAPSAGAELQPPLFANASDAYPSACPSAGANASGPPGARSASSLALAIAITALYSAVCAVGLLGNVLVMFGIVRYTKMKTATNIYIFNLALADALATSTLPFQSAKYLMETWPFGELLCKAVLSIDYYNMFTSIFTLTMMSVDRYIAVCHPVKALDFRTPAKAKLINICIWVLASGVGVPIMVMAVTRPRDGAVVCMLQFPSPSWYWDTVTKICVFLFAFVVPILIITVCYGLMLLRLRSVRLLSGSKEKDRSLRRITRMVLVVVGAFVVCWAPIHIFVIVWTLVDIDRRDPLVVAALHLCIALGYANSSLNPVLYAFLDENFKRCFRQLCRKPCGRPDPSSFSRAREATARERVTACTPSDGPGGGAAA
T2 sequence (P35372 whole entry): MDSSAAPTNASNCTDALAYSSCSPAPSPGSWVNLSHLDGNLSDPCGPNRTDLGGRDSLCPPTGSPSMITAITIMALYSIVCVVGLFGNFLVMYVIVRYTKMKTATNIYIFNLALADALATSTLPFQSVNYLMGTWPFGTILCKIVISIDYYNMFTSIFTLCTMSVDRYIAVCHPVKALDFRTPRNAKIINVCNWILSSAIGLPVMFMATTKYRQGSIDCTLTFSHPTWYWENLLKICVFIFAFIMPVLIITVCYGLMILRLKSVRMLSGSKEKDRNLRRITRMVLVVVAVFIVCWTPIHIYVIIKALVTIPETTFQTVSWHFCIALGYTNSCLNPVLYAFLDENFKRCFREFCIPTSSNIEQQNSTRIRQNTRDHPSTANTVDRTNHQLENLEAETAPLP
T5 sequence (P13945 whole entry): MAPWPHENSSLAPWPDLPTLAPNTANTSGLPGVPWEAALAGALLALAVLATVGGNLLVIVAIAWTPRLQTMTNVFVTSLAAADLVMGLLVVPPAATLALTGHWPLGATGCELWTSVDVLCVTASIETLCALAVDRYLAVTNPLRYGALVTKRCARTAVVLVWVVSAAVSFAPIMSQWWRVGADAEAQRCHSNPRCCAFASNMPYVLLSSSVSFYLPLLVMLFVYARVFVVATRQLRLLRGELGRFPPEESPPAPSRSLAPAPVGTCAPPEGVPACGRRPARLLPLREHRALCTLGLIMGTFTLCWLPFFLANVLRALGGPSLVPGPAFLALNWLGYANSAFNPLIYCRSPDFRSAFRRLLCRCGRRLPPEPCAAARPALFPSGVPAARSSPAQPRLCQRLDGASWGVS
T6 sequence (P07550 whole entry): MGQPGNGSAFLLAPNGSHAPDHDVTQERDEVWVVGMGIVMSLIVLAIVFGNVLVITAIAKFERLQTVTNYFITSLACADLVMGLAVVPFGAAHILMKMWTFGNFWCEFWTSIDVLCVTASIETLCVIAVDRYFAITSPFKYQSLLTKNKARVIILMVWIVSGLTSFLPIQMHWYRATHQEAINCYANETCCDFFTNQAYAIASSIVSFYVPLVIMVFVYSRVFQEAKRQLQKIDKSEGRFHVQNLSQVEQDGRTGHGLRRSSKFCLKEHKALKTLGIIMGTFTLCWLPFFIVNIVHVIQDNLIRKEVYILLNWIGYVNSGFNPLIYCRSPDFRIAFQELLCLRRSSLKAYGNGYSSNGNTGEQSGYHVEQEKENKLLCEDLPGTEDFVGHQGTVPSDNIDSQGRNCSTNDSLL

Compound: Cc1ccc(O)c([C@H](CCN(C(C)C)C(C)C)c2ccccc2)c1 [Tolterodine (unmodified)]
NanoBRET Fold Response (OPRD1; [3]): 0.91
NanoBRET Fold Response (OPRM1; [4]): 0.97
NanoBRET Fold Response (OPRK1; [4]): 0.99
NanoBRET Fold Response (OPRK1; [3]): 1.00
NanoBRET Fold Response (ADRB1; [4]): 0.99
NanoBRET Fold Response (ADRB1; [3]): 1.01
NanoBRET Fold Response (ADRB3; [4]): 1.01

Interaction verified via competitive displacement of tracer (Dopamine receptors): verify additional interactions
Interaction verified via competitive displacement of tracer [1]: verify additional interactions
Interaction verified via competitive displacement of tracer [2]: verify additional interactions
Compound: N#CNC(=NCCCOc1cccc(CN2CCCCC2)c1)NCCNC(=O)c1ccc(N)cc1 [Aminopotentidine]

Compound: CCCn1c(=O)c2[nH]c(-c3ccc(OCC(=O)NCCN)cc3)nc2n(CCC)c1=O [XAC (unmodified)]
NanoBRET Fold Response, other tracers/XAC (unmodified) ([2]; ADRA1A, other tracer 0.1μM): 3.51
NanoBRET Fold Response, other tracers/XAC (unmodified) ([2]; ADRA1A, other tracer 1μM): 1.56
NanoBRET Fold Response, other tracers/XAC (unmodified) ([2]; ADRA1B, other tracer 0.1μM): 1.61
NanoBRET Fold Response, other tracers/XAC (unmodified) ([2]; ADRA1B, other tracer 1μM): 1.32
NanoBRET Fold Response, other tracers/XAC (unmodified) ([2]; ADRA2A, other tracer 0.1μM): 1.12
NanoBRET Fold Response, other tracers/XAC (unmodified) ([2]; ADRA2A, other tracer 1μM): 1.14
NanoBRET Fold Response, other tracers/XAC (unmodified) ([2]; ADRA2B, other tracer 0.1μM): 4.34
NanoBRET Fold Response, other tracers/XAC (unmodified) ([2]; ADRA2B, other tracer 1μM): 1.57
NanoBRET Fold Response, other tracers/XAC (unmodified) ([2]; ADRA2C, other tracer 0.1μM): 1.33

Compound: OCCOCCN1CCN(C2=Nc3ccccc3Sc3ccccc32)CC1 [Quetiapine (unmodified)]
NanoBRET Fold Response (OPRD1; [5]): 1.31
NanoBRET Fold Response (OPRD1; [6]): 1.06
NanoBRET Fold Response (OPRM1; [5]): 1.29
NanoBRET Fold Response (OPRM1; [6]): 1.00
NanoBRET Fold Response (OPRK1; [5]): 1.76
NanoBRET Fold Response (OPRK1; [6]): 0.99
NanoBRET Fold Response (ADRB1; [5]): 1.33
NanoBRET Fold Response (ADRB1; [6]): 1.09
NanoBRET Fold Response (ADRB2; 0.1μM): 1.07
NanoBRET Fold Response (ADRB2; 1μM): 1.33
NanoBRET Fold Response (ADRB3; [5]): 1.11
NanoBRET Fold Response (ADRB3; [6]): 1.12

Compound: CCCn1c(=O)c2[nH]c(-c3ccc(OCC(=O)NCCN)cc3)nc2n(CCC)c1=O [XAC, Xanthine amine congener, reference compound]
Interaction verified via competitive displacement of tracer [2]: additional interactions
